Experimental data reported in patent US12594349B2, “Compositions and methods for the targeting of PCSK9” (Scribe Therapeutics Inc., priority 2022, dated 2026).

System: human PCSK9 locus
Experiment: Secreted PCSK9 by ELISA in Huh7 cells transfected with mRNA and gRNA
Type: cell-based
Conditions: for Secreted PCSK9 / Percent reduction in PCSK9 secretion / Average percent reduction in PCSK9 secretion: Huh7 cells; for Secreted PCSK9: 6 days post-transfection, normalized to total cell count; for Percent reduction in PCSK9 secretion / Average percent reduction in PCSK9 secretion: LTRP5-ADD-ZIM3 mRNA; for Percent reduction in PCSK9 secretion: day 6, relative to non-targeting gRNA control; for Average percent reduction in PCSK9 secretion: day 6, averaged from the two doses
Method: To assess PCSK9 secretion, seeded Huh7 cells were transfected with mRNA encoding a catalytically-active CasX 676, dXR1, or LTRP5-ADD-ZIM3 and a gRNA with scaffold 316 and spacer targeting either the B2M or PCSK9 locus. Media supernatant was harvested at 6, 18, 36, and 87 days post-transfection to assess level of PCSK9 secretion by ELISA. Levels of PCSK9 secretion were normalized to total cell count. As an additional control, PCSK9 secretion was also measured in the media supernatant harvested from wells containing untreated, naïve cells.
The following three human hepatocyte cancer cell lines were used in this experiment: HepG2 cells, Hep3B cells, and Huh7 cells. ˜15,000 cells of each cell line were seeded per well; the next day, seeded cells were transfected with mRNA encoding a catalytically-active CasX 676, dXR1, or LTRP5-ADD-ZIM3 and a gRNA with scaffold 316 and spacer targeting either the B2M or PCSK9 locus (see Table 23 for specific spacers and sequences). Media supernatant was harvested at 4 days post-transfection to assess level of PCSK9 secretion by ELISA, and levels of PCSK9 secretion were normalized to total cell count and illustrated in FIGS. 11A-11C. Culturing of treated Huh7 cells continued, and media supernatant was harvested at 14 and 27 days post-transfection for measuring PCSK9 secretion by ELISA. As an additional experimental control, PCSK9 secretion was also measured in the media supernatant harvested from wells containing untreated, naïve cells.
To assess PCSK9 secretion, seeded Huh7 cells were co-transfected with mRNA encoding for LTRP5-ADD-ZIM3 and a gRNA with scaffold 316 and spacer targeting the PCSK9 locus using Lipofectamine™ 3000. Two doses of total RNA input at a 2:1 mass ratio of mRNA to gRNA were used for screening: 50 ng mRNA:25 ng gRNA and 25 ng mRNA:12.5 ng gRNA. Media supernatant was harvested at 6 days post-transfection to assess level of PCSK9 secretion by ELISA (Table 74). Levels of PCSK9 secretion were normalized to total cell count. As an additional control, PCSK9 secretion was also measured in the media supernatant harvested from cells transfected with mRNA encoding for mScarlet.

[1] = LTRP5-ADD-ZIM3 mRNA + gRNA scaffold 316, 25 ng mRNA:12.5 ng gRNA
[2] = LTRP5-ADD-ZIM3 mRNA + gRNA scaffold 316, 50 ng mRNA:25 ng gRNA

Row | Substance | Secreted PCSK9 [1] [ng/mL] | Secreted PCSK9 [2] [ng/mL] | Percent reduction in PCSK9 secretion (25 ng mRNA:12.5 ng gRNA) [%] | Percent reduction in PCSK9 secretion (50 ng mRNA:25 ng gRNA) [%] | Average percent reduction in PCSK9 secretion [%] | average reduction in secreted PCSK9 levels (Huh7, LTRP5-ADD-ZIM3 mRNA + gRNA scaffold 316 v1, 6 days post-transfection, averaged from two doses, relative to non-targeting gRNA) [%] | secreted PCSK9 repression compared with spacer 6.1 paired with CasX 676 (Huh7, LTRP5-ADD-ZIM3 mRNA + gRNA scaffold 316, through day 36)
1 | TG-06-159 (guide GCGCGCCCCUUCACGCGCCC; listed as RNA, chemistry not given here) | 80.84 | 53.15 | 13.47 | 35.4 | 10.97 | – | –
2 | TG-06-141 (guide ACUGGCCUUAACCUGGCAGC; listed as RNA, chemistry not given here) | 12.58 | 13.86 | 82.34 | 83.16 | 82.75 | 82.75 | –
3 | TG-06-153 (guide GUUAAUGUUUAAUCAGAUAG; listed as RNA, chemistry not given here) | 86.58 | 73.23 | 21.52 | 10.99 | 5.27 | – | –
4 | TG-06-160 (guide CGCGCCCUGCUCCUGAACUU; listed as RNA, chemistry not given here) | 48.67 | 20.63 | 31.69 | 74.93 | 53.31 | – | –
5 | TG-06-143 (guide GAAUCAAUCCUACUGUGGAC; listed as RNA, chemistry not given here) | 22.33 | 38.69 | 68.66 | 52.97 | 60.81 | – | –
6 | TG-06-002 (guide ACCGCUGCGCCAAGGUGCGG; listed as RNA, chemistry not given here) | – | – | – | 0.4 | – | – | –
7 | TG-06-142 (guide UUCCACUGGCCUUAACCUGG; listed as RNA, chemistry not given here) | 27.27 | 30.87 | 61.73 | 62.48 | 62.1 | – | –
8 | TG-06-152 (guide GCCUCGCCCUCCCCAAACAG; listed as RNA, chemistry not given here) | 57.43 | 36.95 | 19.39 | 55.09 | 37.24 | – | –
9 | Non-targeting (guide CGAGACGTAATTACGTCTCG; chemistry not given here) | – | – | 0 | 0 | 0 | – | –
10 | TG-06-134 (guide GAAUUCUAUGGUAGGCACAA; listed as RNA, chemistry not given here) | 57.45 | 43.79 | 19.37 | 46.77 | 33.07 | – | –
11 | TG-06-352 (guide UCCCUCACCAAUUACCCCUC; listed as RNA, chemistry not given here) | – | – | – | – | – | – | effective repression
12 | TG-06-1046 (guide UCUCUUACAUGGGGGGAAAC; listed as RNA, chemistry not given here) | – | – | – | 4.1 | – | – | –
13 | TG-06-126 (guide CCUUUUCAUCCUCCUGCCUG; listed as RNA, chemistry not given here) | 44.82 | 23.48 | 37.09 | 71.46 | 54.27 | – | –
14 | TG-06-125 (guide AGAAAGAGCAAGCCUCAUGU; listed as RNA, chemistry not given here) | 46.11 | 24.93 | 35.28 | 69.7 | 52.49 | – | –
15 | TG-06-168 (guide GUGGGAAGGUUCGCGGGGUU; listed as RNA, chemistry not given here) | 50.96 | 19.1 | 28.47 | 76.78 | 52.62 | – | –
16 | TG-06-150 (guide UCCCUCUGCGCGUAAUCUGA; listed as RNA, chemistry not given here) | 39.59 | 18.33 | 44.42 | 77.73 | 61.08 | – | –
17 | TG-06-139 (guide AGGAGCAGCUAGUUGGUAAG; listed as RNA, chemistry not given here) | 25.45 | 15.03 | 64.28 | 81.73 | 73.01 | – | –
18 | TG-06-151 (guide CUCUGCGCGUAAUCUGACGC; listed as RNA, chemistry not given here) | 66.42 | 53.44 | 6.77 | 35.05 | 20.91 | – | –
19 | TG-06-344 (guide CAGUUUCUGCCUCGCCGCGG; listed as RNA, chemistry not given here) | – | – | – | 0.01 | – | – | –
20 | TG-06-169 (guide CGGGGUUGGGAGACCCGGAG; listed as RNA, chemistry not given here) | 62.55 | 66.39 | 12.2 | 19.3 | 15.75 | – | –
21 | TG-06-158 (guide GGAGCAGGGCGCGUGAAGGG; listed as RNA, chemistry not given here) | 31.72 | 9.39 | 55.48 | 88.59 | 72.03 | – | –
22 | TG-06-122 (guide CCUUUGUUUCUUCCCAGUAU; listed as RNA, chemistry not given here) | 86.06 | 79.36 | 20.79 | 3.54 | 8.63 | – | –
23 | TG-06-147 (guide GUGUUUCCUGGGUCCACCUU; listed as RNA, chemistry not given here) | 37.43 | 53.6 | 47.46 | 34.85 | 41.15 | – | –
24 | TG-06-149 (guide AGCCCAGUUAGGAUUUGGGA; listed as RNA, chemistry not given here) | 38.33 | 21.18 | 46.21 | 74.26 | 60.23 | – | –
25 | TG-06-118 (guide GAGUGAAAUGGCCUGCUCUG; listed as RNA, chemistry not given here) | 54.78 | 35.5 | 23.11 | 56.86 | 39.99 | – | –
26 | TG-06-135 (guide GGAAAGCUGAGCUUGUGCCU; listed as RNA, chemistry not given here) | 44.59 | 25.66 | 37.42 | 68.82 | 53.12 | – | –
27 | TG-06-119 (guide GAGCAGGCCAUUUCACUCGG; listed as RNA, chemistry not given here) | 84.54 | 70.37 | 18.66 | 14.47 | 2.1 | – | –
